Experiments:
[1] = target: hGYS1 enzyme, glycogen synthesis in HeLa cells (Homo sapiens (Human), UniProt P13807); assay: GYS1 cell based assay (glycogen synthesis in HeLa cells, Glucose-glo); details: starved HeLa cells, 24 h incubation; geometric mean of at least 2 assay runs; read-out: Cellular IC50
Source text: The GYS1 cell based assay is a bioluminescent assay that quantifies the glucose resulting from glycogen digestion; the quantified glucose is an indirect measure of GYS1 glycogen synthesis. Newly synthesized glycogen is digested using Glucoamylase; the resulting glucose is quantified by using the Glucose-glo assay kit from Promega. Glucose-glo works by coupling glucose oxidation and NADH production with a bioluminescent system that is activated with NADH. Glucose is oxidized by Glucose dehydrogenase and the reaction reduces NAD+ to NADH; NADH activates Reductase which reduces a pro-luciferin Reductase Substrate to luciferin. Luciferin is detected in a luciferase reaction using Ultra-Glo rLuciferase and ATP, and the luminesce produced is proportional to the glucose in the sample. The luminescence is measured as a single point read in a plate reader.
Compounds that inhibit the hGYS1 enzyme and, subsequently, the glycogen synthesis in cells, were tested using assay ready plates (white, clear bottom 384 well plates) in a final DMSO reaction volume of 1% DMSO. Compounds in the assay ready plates were mixed with media with no additives, except for 20 mM glucose prior to cell addition. HeLa cells were starved in media with no additives, except for 1× Glutamax for 24 h. Starved HeLa cells were plated, in a 1:1 ratio to the media in the assay ready plate and incubated for 24 h at 37° C. and 5% CO2. Cells were washed in 1×PBS buffer and lysed in lysis buffer containing 50% 1×PBS and 25% 0.3 N HCl of the final volume in the well or reaction volume; cells were incubated with lysis buffer for 10 minutes and quenched with the remaining 25% of the reaction volume that consisted of 450 mM Tris pH 8.0. Lysates were mixed in a 1:1 ratio with Glucoamylase in 100 mM Sodium Acetate buffer, pH 5.3; the mixture was incubated for 1 h at 37° C. The digested lysate was mixed in a 1:1 ratio with Glucose-glo detection mixture as per vendor recommendations (Luciferase detection buffer, Reductase, Reductase substrate, Glucose dehydrogenase, and NAD) in read-out plates (solid white 384-well plates) and incubated for 1 h at RT. The plates were read using a plate reader with luminescence capabilities. Each compound concentration Relative Luminescence Unit (RLU) was averaged and normalized to the average RLU of the positive and negative controls to obtain a percentage inhibition. The normalized data vs. concentration was plotted; to determine the half-maximal concentration (IC50), the Levenberg-Marquardt algorithm was used to fit a Hill equation to the dose response data.
Unless otherwise specified, IC50 values are reported as the geometric mean of at least 2 assay runs on separate days. […] Unless otherwise specified, IC50 values are reported as the geometric mean of at least two assay runs on separate days. Each run represents the average of a technical replicate, where each compound was assayed twice in the same plate.

human GYS1 = human GYS1 (Homo sapiens (Human), UniProt P13807); assay: GYS1 coupled enzyme assay (PK/LDH); type: biochemical; details: recombinant hGYS1/GN1 protein; geometric mean of at least 2 assay runs
Source text: The GYS1 coupled enzyme assay is a kinetic biochemical assay that indirectly quantifies the rate of glycogen synthesis by coupling the conversion of GYS1 substrate UDP-glucose into UDP with downstream enzymatic reactions. UDP is released from UDP-glucose as glucose monomers are linked into the growing glycogen strand by GYS1. The coupled assay then proceeds with pyruvate kinase utilizing UDP and phospho (enol) pyruvate (PEP) to form pyruvate. Lactate dehydrogenase then converts pyruvate and NADH into lactate and NAD+. Oxidation of NADH to NAD+ can be measured continuously with a plate reader by quantifying the decrease in NADH absorbance at 340 nm over time.
Compounds that inhibit the hGYS1 enzyme and, subsequently, the downstream conversion of NADH to NAD+, were tested using assay ready plates (black, clear bottom 384 well plates) in a final DMSO reaction volume of 2.5% DMSO. The Assay Buffer contained 50 mM Tris pH 7.5, 2 mM MgCl2, and 100 mM KCl. Fresh stocks of BSA at a final concentration of 0.02% and TCEP at 1 mM were added before splitting buffer into hGYS1 buffer and substrate buffer. To the hGYS1 buffer, rabbit liver glycogen was added at a final concentration of 0.2% glycogen. Glucose-6-Phosphate was added at 1 mM, recombinant hGYS1/GN1 protein was added at 50 nM to the substrate buffer, phosphoenolpyruvate (PEP) was added at 2 mM, UDP-Glucose was added at 0.8 mM, NADH) was added at 0.6 mM, and Pyruvate Kinase/Lactate Dehydrogenase was added at 20 units/mL. The reaction was initiated by mixing hGYS1 buffer and substrate buffer at a 1:1 ratio. Both buffers were plated using a liquid dispensing device with hGYS1 buffer plated first followed by the substrate buffer. Plates were spun briefly to eliminate air bubbles and are immediately read in continuous mode at an absorbance of 340 nm, for 10 time points in one-minute increments, for a total of 10 minutes. The slope from these 10 time points was normalized to the positive and negative control wells.
Unless otherwise specified, IC50 values are reported as the geometric mean of at least 2 assay runs on separate days. Each run represents the average of a technical replicate, where each compound was assayed twice in the same plate.

Chain of human GYS1 (P13807 whole entry): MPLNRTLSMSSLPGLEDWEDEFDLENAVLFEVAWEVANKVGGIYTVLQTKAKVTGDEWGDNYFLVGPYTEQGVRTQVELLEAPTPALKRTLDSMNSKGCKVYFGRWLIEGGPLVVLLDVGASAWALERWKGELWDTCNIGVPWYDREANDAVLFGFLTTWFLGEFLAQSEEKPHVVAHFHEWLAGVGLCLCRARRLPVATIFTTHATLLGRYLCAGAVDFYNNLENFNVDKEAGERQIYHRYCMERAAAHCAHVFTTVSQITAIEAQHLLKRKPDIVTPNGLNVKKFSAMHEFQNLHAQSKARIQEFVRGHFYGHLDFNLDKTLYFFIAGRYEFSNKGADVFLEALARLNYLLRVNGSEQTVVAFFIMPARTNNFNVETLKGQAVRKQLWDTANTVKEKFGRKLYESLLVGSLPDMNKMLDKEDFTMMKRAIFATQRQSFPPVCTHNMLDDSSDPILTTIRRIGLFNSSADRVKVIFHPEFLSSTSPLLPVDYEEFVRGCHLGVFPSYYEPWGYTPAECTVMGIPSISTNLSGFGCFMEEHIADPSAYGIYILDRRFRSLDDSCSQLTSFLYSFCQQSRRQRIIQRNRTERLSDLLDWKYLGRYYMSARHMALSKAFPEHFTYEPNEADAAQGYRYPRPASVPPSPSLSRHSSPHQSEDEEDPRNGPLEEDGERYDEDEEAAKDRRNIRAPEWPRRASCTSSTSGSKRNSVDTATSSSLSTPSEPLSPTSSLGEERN
Chain of human GYS1 (P46976 whole entry partner): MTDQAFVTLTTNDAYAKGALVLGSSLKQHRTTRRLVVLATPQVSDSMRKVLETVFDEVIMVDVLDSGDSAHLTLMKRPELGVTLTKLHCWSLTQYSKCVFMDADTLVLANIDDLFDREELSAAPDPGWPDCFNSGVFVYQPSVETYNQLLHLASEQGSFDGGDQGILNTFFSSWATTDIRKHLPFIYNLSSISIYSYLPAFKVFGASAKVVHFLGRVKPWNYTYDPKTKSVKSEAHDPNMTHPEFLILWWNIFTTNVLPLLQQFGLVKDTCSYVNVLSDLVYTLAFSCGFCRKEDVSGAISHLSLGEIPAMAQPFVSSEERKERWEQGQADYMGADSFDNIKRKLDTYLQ
Chain of hGYS1 enzyme, glycogen synthesis in HeLa cells (P13807 whole entry): as the sequence (P13807 whole entry) above

SMILES	IC50 [1] [µM]	IC50 (human GYS1) [µM]
CC(C)c1ccc([C@@H](NC(=O)C2CC(NC(=O)OC(C)(C)C)CC2C(=O)O)c2ccccc2)cc1 (single isomer, unassigned) [Compound 11, (1S or 1R,2R or 2S,4R or 4S)-4-((tert-butoxycarbonyl)amino)-2-(((S)-(4-isopropylphenyl)(phenyl)methyl)carbamoyl)cyclopentane-1-carboxylic acid]	> 100	1.94
CC(C)c1ccc([C@@H](NC(=O)C2CC(O)CC2C(=O)O)c2ccccc2)cc1 (single isomer, unassigned) [Compound 21, (1S or 1R,2R or 2S,4S or 4R)-4-hydroxy-2-(((S)-(4-isopropylphenyl)(phenyl)methyl)carbamoyl)cyclopentane-1-carboxylic acid]	> 100	1.96
CC(C)c1ccc([C@@H](NC(=O)C2CC(F)CC2C(=O)O)c2ccccc2)cc1 (single isomer, unassigned) [Compound 25, (1S or 1R,2R or 2S,4R or 4S)-4-fluoro-2-(((S)-(4-isopropylphenyl)(phenyl)methyl)carbamoyl)cyclopentane-1-carboxylic acid]	24.5	1.15
CC(C)c1ccc([C@@H](NC(=O)C2CCC(C(=O)O)C2)c2ccccc2)cc1 (single isomer, unassigned) [Compound 33, (1S or 1R,3R or 3S)-3-(((S)-(4-isopropylphenyl)(phenyl)methyl)carbamoyl)cyclopentane-1-carboxylic acid]		3.13
CC1(C)CC2(CC([C@@H](NC(=O)C3CCCC3C(=O)O)c3ccccc3)C2)C1 (single isomer, unassigned) [Compound 35, (1S or 1R,2R or 2S)-2-(((R)-(6,6-dimethylspiro[3.3]heptan-2-yl)(phenyl)methyl)carbamoyl)cyclopentane-1-carboxylic acid]		2.39
CC(C)c1ccc([C@@H](NC(=O)[C@@H]2CCC[C@@H]2C(=O)O)c2cccc(-c3ccnn3C)c2)nc1F [Compound 1, (1S,2R)-2-(((S)-(6-fluoro-5-isopropylpyridin-2-yl)(3-(1-methyl-1H-pyrazol-5-yl)phenyl)methyl)carbamoyl)cyclopentane-1-carboxylic acid]		1.44
CC(C)c1ccc([C@@H](NC(=O)[C@@H]2CCC[C@@H]2C(=O)O)c2cccc3c2[nH]c(=O)n3C)cc1F [Compound 7, (1S,2R)-2-(((R)-(3-fluoro-4-isopropylphenyl)(1-methyl-2-oxo-2,3-dihydro-1H-benzo[d]imidazol-4-yl)methyl)carbamoyl)cyclopentane-1-carboxylic acid]	> 10	0.884
CC(C)c1ccc([C@@H](NC(=O)[C@@H]2CCC[C@@H]2C(=O)O)c2cccc3[nH]c(=O)oc23)cc1 [Compound 9, (1S,2R)-2-(((R)-(4-isopropylphenyl)(2-oxo-2,3-dihydrobenzo[d]oxazol-7-yl)methyl)carbamoyl)cyclopentane-1-carboxylic acid]	> 100	0.879
CC(C)c1ccc([C@@H](NC(=O)[C@@H]2CCC[C@@H]2C(=O)O)c2cccc3oc(=O)[nH]c23)cc1 [Compound 10, (1S,2R)-2-(((R)-(4-isopropylphenyl)(2-oxo-2,3-dihydrobenzo[d]oxazol-4-yl)methyl)carbamoyl)cyclopentane-1-carboxylic acid]	> 100	2.93
O=C(O)[C@H]1CCC[C@H]1C(=O)N[C@@H](c1ccccc1)c1ccc(C2CC2)cn1 [Compound 12, (1S,2R)-2-(((S)-(5-cyclopropylpyridin-2-yl)(phenyl)methyl)carbamoyl)cyclopentane-1-carboxylic acid]	> 65.8	1.73
CC(C)c1ccc([C@@H](NC(=O)[C@@H]2CCC[C@@H]2C(=O)O)c2ccccc2NC(=O)C2CNC2)cc1 [Compound 13, (1S,2R)-2-(((R)-(2-(azetidine-3-carboxamido)phenyl)(4-isopropylphenyl)methyl)carbamoyl)cyclopentane-1-carboxylic acid]	> 68.6	2.36
CC1(c2ccc([C@@H](NC(=O)[C@@H]3CCC[C@@H]3C(=O)O)c3ccccc3)cc2)CC1 [Compound 14, (1S,2R)-2-(((S)-(4-(1-methylcyclopropyl)phenyl)(phenyl)methyl)carbamoyl)cyclopentane-1-carboxylic acid]	> 60.8	1.01
O=C(O)[C@H]1CCC[C@H]1C(=O)N[C@@H](c1ccccc1)c1ccc(C2CC2)cc1 [Compound 38, (1S,2R)-2-(((S)-(4-cyclopropylphenyl)(phenyl)methyl)carbamoyl)cyclopentane-1-carboxylic acid]		1.13

Now those with a lower IC50 (human GYS1), led by results:

IC50 [1] [µM]	IC50 (human GYS1) [µM]	SMILES
> 100	0.836	CC(C)c1ccc([C@@H](NC(=O)C2CC(O)CC2C(=O)O)c2ccccc2)cc1 (single isomer, unassigned) [Compound 16, (1S or 1R,2R or 2S,4R or 4S)-4-hydroxy-2-(((S)-(4-isopropylphenyl)(phenyl)methyl)carbamoyl)cyclopentane-1-carboxylic acid]
	0.426	CC(C)c1ccc([C@@H](NC(=O)[C@@H]2CCC[C@@H]2C(=O)O)c2cccc(-c3cnco3)c2)nc1F [Compound 2, (1S,2R)-2-(((S)-(6-fluoro-5-isopropylpyridin-2-yl)(3-(oxazol-5-yl)phenyl)methyl)carbamoyl)cyclopentane-1-carboxylic acid]
	0.63	CC(C)c1ccc([C@@H](NC(=O)[C@@H]2CCC[C@@H]2C(=O)O)c2cccc(-c3ccno3)c2)nc1F [Compound 3, (1S,2R)-2-(((S)-(6-fluoro-5-isopropylpyridin-2-yl)(3-(isoxazol-5-yl)phenyl)methyl)carbamoyl)cyclopentane-1-carboxylic acid]
	0.178	CC(C)c1ccc([C@@H](NC(=O)[C@@H]2CCC[C@@H]2C(=O)O)c2cccc(-c3ccn[nH]3)c2)nc1F [Compound 4, (1S,2R)-2-(((S)-(3-(1H-pyrazol-5-yl)phenyl)(6-fluoro-5-isopropylpyridin-2-yl)methyl)carbamoyl)cyclopentane-1-carboxylic acid]
	0.084	CC(C)c1ccc([C@@H](NC(=O)[C@@H]2CCC[C@@H]2C(=O)O)c2ccc3cn[nH]c3c2)nc1F [Compound 5, (1S,2R)-2-(((S)-(6-fluoro-5-isopropylpyridin-2-yl)(1H-indazol-6-yl)methyl)carbamoyl)cyclopentane-1-carboxylic acid]
	0.272	O=C(O)[C@H]1CCC[C@H]1C(=O)N[C@@H](c1ccccc1)c1ccc(C2CC2)c(F)n1 [Compound 6, (1S,2R)-2-(((S)-(5-cyclopropyl-6-fluoropyridin-2-yl)(phenyl)methyl)carbamoyl)cyclopentane-1-carboxylic acid]

Source: patent US20260021085A1, “CYCLOALKYL CARBOXYLIC ACID DERIVATIVES AS INHIBITORS OF GLYCOGEN SYNTHASE 1 (GYS1) AND METHODS OF USE THEREOF” (Maze Therapeutics, Inc., priority 2022, published 2026)
